Assay in all cases: relative viability (nuclei count vs DMSO), 5 days (fraction); higher = more cells survive
Compound in the assay “kb NB 142-70 + Dasatinib”: C1CSC2=C(C(=O)N1)SC3=C2C=C(C=C3)O [kb NB 142-70] + Cc1nc(Nc2ncc(C(=O)Nc3c(C)cccc3Cl)s2)cc(N2CCN(CCO)CC2)n1 [Dasatinib] (partner 0.075 µM)
In short, it runs like this: (§1)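 Lung cancer cell lines were pin-tool dosed in 1536-well plates on the day after seeding, with either a lone drug or a fixed anchor-drug dose plus five library-drug doses (not always all listed) in √10 steps. Nuclei were counted on 4× images after 5 days. Relative viability is the ratio of treated-well to vehicle-well nuclei counts, with each value a median of duplicate plates.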

Compound in assay [1]: C1CSC2=C(C(=O)N1)SC3=C2C=C(C=C3)O [kb NB 142-70] + CCNC(=O)c1noc(-c2cc(C(C)C)c(O)cc2O)c1-c1ccc(CN2CCOCC2)cc1 [Luminespib] (partner 0.01 µM)
In short, it runs like this:
as §1

Compound in assay [2]: NCC(=O)Nc1ccc(-n2nc(C(F)(F)F)cc2-c2ccc3c(ccc4ccccc43)c2)cc1 + CC1(C)CCC(c2ccc(Cl)cc2)=C(CN2CCN(c3ccc(C(=O)NS(=O)(=O)c4ccc(N[C@H](CCN5CCOCC5)CSc5ccccc5)c(S(=O)(=O)C(F)(F)F)c4)cc3)CC2)C1 [Navitoclax] (partner 0.5 µM)
In short, it runs like this:
as §1

Compound in assay [3]: NCC(=O)Nc1ccc(-n2nc(C(F)(F)F)cc2-c2ccc3c(ccc4ccccc43)c2)cc1 + CC(=O)Nc1cccc(-n2c(=O)n(C3CC3)c(=O)c3c(Nc4ccc(I)cc4F)n(C)c(=O)c(C)c32)c1 [Trametinib] (partner 0.02 µM)
Put shortly: as §1

The results in this text go back to the supplement of paper PMC10307832.

UMC-11: the relative viability with kb NB 142-70 + Dasatinib (first compound 0.1 µM) amounted to 0.438; with kb NB 142-70 + Dasatinib (first compound 1 µM), 0.464; with kb NB 142-70 + Dasatinib (first compound 3.162 µM), 0.318; in assay [1] (first compound 0.1 µM) it was 1.02; in assay [1] (first compound 1 µM), 0.908; in assay [1] (first compound 3.162 µM), 0.494. For the same cell line, the relative viability in assay [2] (first compound 0.02 µM) came out at 0.303; in assay [2] (first compound 0.06325 µM), 0.349; in assay [2] (first compound 0.2 µM) it was 0.35; in assay [2] (first compound 0.6325 µM), 0.304; in assay [2] (first compound 2 µM), 0.328; in assay [3] (first compound 0.02 µM) it was 0.645. Besides, the relative viability was 0.85 in assay [3] (first compound 0.06325 µM), 0.751 in assay [3] (first compound 0.2 µM), 0.773 in assay [3] (first compound 0.6325 µM) and 0.747 in assay [3] (first compound 2 µM).
